Results: ChEMBL document CHEMBL3507680, “University of Dundee, Gates Library screen for HepG2 cell viability”

Assay: Human HepG2 cell viability assay in 384 well format
Format: toxicity, cell-based
Parameters: dose 125 nL, time 70.5 hour; cytotoxicity at 70.5 h: concentration not given beside the values
Conditions: HepG2 cells, read-out: Inhibition

| SMILES | cytotoxicity at 70.5 h [%] |
| --- | --- |
| CNC(=O)[C@H]1C[C@@H]2CN(C(=O)c3ccncc3F)C[C@@H]2N1C | -16.9 |
| CC(=O)Nc1nc(CN2CCn3c(nnc3C(C)C)C2)cs1 | -4.17 |
| CC(C)CC(=O)NC1CC2(CCN(CCF)CC2)Oc2ccccc21 (centres undefined) | -6.46 |
| CNc1cncc(C2CCCN2C(=O)c2ccc3oc(=O)n(C)c3c2)n1 (centres undefined) | 17.9 |
| Cn1nccc1CCC(=O)NC1CCCN(c2ccccn2)C1 (centres undefined) | -1.31 |
| Cn1cc(CN2CCCC(CCc3ccc(F)cc3F)C2)cn1 (centres undefined) | -3.89 |
| Cc1ncsc1C(=O)N1CCCC(c2nccn2Cc2cscn2)C1 (centres undefined) | -5.99 |
| CC(C)OC(=O)N1CCC(Nc2ncc(Br)cn2)CC1 | -2.18 |
| CC(=O)N1CCCn2c(nc(CNS(=O)(=O)C3CC3)cc2=O)C1 | -2.61 |
| O=C(NCCNc1ccc(C(F)(F)F)cn1)c1ccc(Cl)cc1F | 1.38 |
| C=C(C)Cn1nnc(C2(NC(=O)c3ccccc3)CCCC2)n1 | -8.81 |
| CCn1cc(CN2CCN(C(=O)c3cc(C)c(C)s3)CC2)c(C)n1 | -10.4 |
| CN1CCCCC[C@@H]2[C@@H]1[C@H](c1ccccc1)CN2C(=O)c1ccccn1 | -1.6 |
| COCCN1CCC(c2nc3c([nH]2)CC(C)(C)CNC3=O)CC1 | -4.63 |
| CCn1cnnc1C1CCN(C(=O)c2ccc(Cl)s2)CC1 | -15 |
| Cc1c(CN2CCCC(c3[nH]ncc3S(C)(=O)=O)C2)cnn1C (centres undefined) | -5.66 |
| CCCNC(=O)c1ccc2c(c1)C(=O)N(CC(C)C)C2=O | -1.77 |
| O=c1[nH][nH]cc1-c1ccnc(NCCCN2CCOCC2)n1 | -1.38 |
| CSCC(=O)N1C[C@@H](C)[C@](O)(C(C)C)C1 | -7.39 |
| O=C(CCCn1cncn1)N1CCC2(CCCNC2=O)C1 (centres undefined) | 0.299 |
| CNC(=O)c1cccc(CNC(C)c2cc(C)ccc2OC(F)F)c1 (centres undefined) | -7.54 |
| CN(Cc1ccsc1)C(=O)CN1CCOC(Cn2cccn2)C1 (centres undefined) | 29 |
| Cc1cc(C)c(CCNC(=O)NCCCC(N)=O)c(C)c1 | -1.98 |

| SMILES | cytotoxicity at 70.5 h [%] |
| --- | --- |
| CCN(C)C(=O)c1ccc(N(C)Cc2cc(-c3ccncc3)no2)nc1 | -2.26 |
| COc1cccc(-c2noc(C3CCN(CC(N)=O)C3)n2)c1 (centres undefined) | -4.11 |
| O=C(O)c1c(-c2cccnc2)ncc2c1CCN(Cc1ccccn1)C2 | -8.57 |
| Clc1ccc2nc(N3CCC(NCCCC4CCOC4)CC3)sc2c1 (centres undefined) | 48.3 |
| CCNc1ncc(C(=O)NC2CCSC2)cn1 (centres undefined) | 8.53 |
| N#Cc1ccccc1CNC(C(=O)N1CCOCC1)c1ccccc1 (centres undefined) | -1.56 |
| CCc1cnc2c(c1NCc1cccc(OC)c1)c(=O)n(C)c(=O)n2C | 33.7 |
| Cn1cc(C2CCCN2C(=O)CCn2c(=O)oc3ccccc32)cn1 (centres undefined) | -2.42 |
| CC(C)n1ncc2c1NC(=O)C(C#N)C21CCCC1 (centres undefined) | -11.3 |
| Cc1nc(NCC2CC2)nc2c1COCC21CCN(C(=O)C(C)(C)C)C1 (centres undefined) | -18.4 |
| Cc1cnn(CCNCc2csc(COc3ccccc3)n2)c1 | -0.421 |
| Cc1nn(C)c(Cl)c1C1CCCN1Cc1cn2ccsc2n1 (centres undefined) | -1.16 |
| CC(=O)N1Cc2ccccc2OC2(CCN(C(=O)C3CC3)CC2)C1 | 25.4 |
| CC(O)CN1CCC(CNCCOCC(F)(F)F)CC1 (centres undefined) | -7.95 |
| CC(=O)N1CC[C@H]2OCC[C@@]2(C(=O)NCCc2ccccn2)C1 | 4.18 |
| CCOC(=O)COc1ccc(C(C)=O)c(O)c1 | 28.9 |
| O=C(NCC1CC1)[C@H]1C[C@@H]2CN(C(=O)NCc3ccccc3)C[C@H]1O2 | 11.4 |
| CC(C)(C)c1ncc(C(=O)NCc2cccc(C(=O)N3CCCC3)c2)s1 | -1.76 |
| CC(C)(C)c1ncc(C(=O)NCCNC(=O)c2ccccc2)s1 | 1.17 |
| COCC1CN(C(=O)Nc2cc(Cl)ccc2F)CCO1 (centres undefined) | -8.58 |
| CCc1n[nH]c(C2CN(C(=O)c3cnc(C)cn3)CCO2)n1 (centres undefined) | -10.6 |
| Cc1nnc2n1CCN(C(C(N)=O)c1ccc(F)cc1)C2 (centres undefined) | -16.8 |
| O=C(O)[C@]12CCCN(Cc3ccco3)C[C@H]1CN(c1ncccn1)C2 | -12.1 |

| SMILES | cytotoxicity at 70.5 h [%] |
| --- | --- |
| O=C(c1ccco1)N1CC[C@H]2C[C@@H](c3nccs3)O[C@@H]2C1 | -1.13 |
| Cc1ccc(C(=O)NCCCNS(C)(=O)=O)cc1-n1cccc1 | -4.62 |
| COc1cc(N2CCC3(CCN(Cc4cccnc4)C3=O)C2)ncn1 (centres undefined) | -4.34 |
| COCc1cccc(NC(C)C(=O)N(C)Cc2cccc(F)c2)c1 (centres undefined) | -2.97 |
| O=C(C1CC1)N1CCN(Cc2coc(-c3ccc(Cl)cc3)n2)CC1 | 12.1 |
| Cc1ccc(C(=O)N(C)CC(=O)N2CCCC2)c(C)c1 | -16 |
| O=C1N(CC2CC2)C2(CCSCC2)NC12CCCC2 | 30.4 |
| Cn1ncc2c1NC(=O)CC2c1c(Cl)cccc1Cl (centres undefined) | -16.4 |
| CC(C)NC(=O)Nc1ccc(CNCc2ccc(OC(F)F)cc2)cc1 | 13.8 |
| Cc1nc(C)n(CC2CN(CCCOc3ccccc3C)CCO2)n1 (centres undefined) | 11.3 |
| CCOc1nc2cccnc2n(CC(=O)NCCOC)c1=O | -14.5 |
| CC1CCCCN1C(=O)COCc1nc(-c2ccncc2)no1 (centres undefined) | 4.94 |
| Cn1cnc2c1CCN(Cc1csc(C3CCCC3)n1)C2 | -9.44 |
| Cc1ccc(-c2cccc(CC3(C(=O)O)CCOCC3)c2)c(C)c1 | -5.38 |
| CSc1nc2ncc3c(=O)n(C)ccc3n2n1 | -8.16 |
| COc1cc(CNC(=O)Nc2nncs2)ccc1O | -1.98 |
| Cc1n[nH]c(C)c1C1CCCN1C(=O)NC(C)(C)C (centres undefined) | 4.46 |
| Cc1csc(NCC(=O)c2c[nH]c3ccccc23)n1 | 3.37 |
| COc1cccc(C(=O)N2CCN(C(=O)CCCn3ccnc3)CC2)c1 | 26.1 |
| Cc1noc(C2(C)CCN(C(=O)C(C)C)CC2)n1 | -5.14 |
| O=C(NCCn1ccnc1)N1CCN(Cc2ccsc2)CC1 | 9.21 |
| Cc1nn(C)c2c(=O)n(C)c(NCC3CCCO3)nc12 (centres undefined) | -3.29 |
| CC1CCCN(c2ccccc2OCC(=O)N2CCOCC2)C1 (centres undefined) | 17.5 |

| SMILES | cytotoxicity at 70.5 h [%] |
| --- | --- |
| CCC1(c2ccc(NS(=O)(=O)c3cccs3)cc2)CCC(=O)NC1=O (centres undefined) | -1.8 |
| O=C1N(CCCc2ccccc2)CCCC1(O)CN1CCC(CO)CC1 (centres undefined) | -9.35 |
| CN(C)C(=O)c1c[nH]nc1C1CCN(S(=O)(=O)c2ccc(Cl)cc2)CC1 | 17.9 |
| Cc1ccc(N2CCCc3sc(C(=O)NCCC#N)nc32)nn1 | -4.91 |
| CCN(Cc1nnsc1Cl)C(C)c1ccc(C#N)cc1 (centres undefined) | -3.23 |
| CCO[C@H]1CC[C@H]2[C@H]1OCCN2C(=O)COc1ccccc1 | -4.98 |
| COCCOc1ccc(NC(=O)C2CCC2)cn1 | -7.54 |
| c1ccc(CCN2CCc3c(ncn3C3CC3)C2)nc1 | -3.33 |
| CCOCc1nc(N2CCCC2)sc1C(=O)NCc1ccco1 | -5.28 |
| CNS(=O)(=O)Cc1cccc(CNc2ccc(Cl)cn2)c1 | 4.33 |
| COCCC(=O)N1CCC2(COCc3cnc(N4CCOCC4)nc32)C1 (centres undefined) | -15.1 |
| CCCn1cnnc1CNC(=O)C1COc2c(cccc2OC)C1 (centres undefined) | -11.4 |
| CCc1cc(N(C)Cc2c(C)nn(C)c2C)n2nccc2n1 | -2.89 |
| Cc1nc(-c2ccoc2)n(CC(=O)NCC(C)C)c1C | 1.09 |
| Oc1ccccc1-c1n[nH]c(C2CCCO2)n1 (centres undefined) | 28.5 |
| Cc1ccoc1C(=O)N1CC[C@@]2(C[C@H](NS(C)(=O)=O)CCO2)C1 | -18.1 |
| COc1c(C(=O)NCc2cccnc2)nnn1Cc1ccccc1 | -7.04 |
| COCCN1CCN(Cc2cccc(OCC(N)=O)c2)CC1C (centres undefined) | 10.7 |
| Cc1cc(C)c2cc(CNCc3cccnc3)c3nn(C)c(=O)n3c2c1 | -0.562 |
| CN1CCO[C@@H]2CN(C(=O)NCc3cccc(F)c3)CC[C@@H]2C1 | -3.54 |
| CCN(c1ccsc1C(=O)N1CCC(C)CC1)S(=O)(=O)c1ccccc1 | -11.9 |
| CC(=O)N1CCN(C(=O)NCc2csc(Br)c2)CC1 | -9.87 |
| COC(=O)c1cccc(CNC(=O)CC(F)(F)F)c1 | -5.17 |

| SMILES | cytotoxicity at 70.5 h [%] |
| --- | --- |
| CCN(CC)[C@@H]1CN(C(=O)c2ccc(C#N)cc2)[C@@H]2CCCO[C@H]12 | -4.73 |
| CC(=O)Nc1sccc1C(=O)C(C)(C)C | 16.1 |
| Cc1noc(-c2cccnc2N2CCN(c3cnn(C)c3)CC2)n1 | -12 |
| O=S(=O)(c1ccc(F)cc1)N1CCCn2cnc(CN3CCCC3)c2C1 | 3.23 |
| COc1ncc(NCc2ccc(C#N)cc2)cc1C(N)=O | -4.6 |
| CCOCC1CC2(CCN(C(=O)c3ccc4ccccc4n3)CC2)CO1 (centres undefined) | -13.3 |
| CC(Cc1ccco1)NC(=O)Nc1ccc(N2CCOCC2)nc1 (centres undefined) | -4.87 |
| Cc1nn(C2CCS(=O)(=O)C2)c(O)c1CCc1ccccc1 (centres undefined) | -8.16 |
| Cc1cccc(CS(=O)(=O)CC(O)Cn2cccn2)c1 (centres undefined) | -4.24 |
| Cc1nc(CC(=O)N2CCN(CCOc3ccccc3)CC2)cs1 | -10.1 |
| Cc1cnc(CN(Cc2ccccc2)CC2CCOCC2)cn1 | -3.35 |
| CC(=O)N(Cc1ncc(C)o1)C1CCN(CCCc2cnn(C)c2)C1 (centres undefined) | 13.3 |
| CCN(Cc1ccncc1)CC1(O)CCN(C(=O)c2cccc(C)c2)C1 (centres undefined) | -4.75 |
| O=S(=O)(c1cc(F)cc(F)c1)N1CCC(Oc2ccc(Cl)cn2)CC1 | 2 |
| O=C(NCc1ccc(C(=O)O)o1)c1ccc(F)cc1 | 0.996 |
| Cc1ccc(Cn2cc(C)c(N)n2)cc1 | 22.1 |
| Cc1nn(C)cc1C(=O)N1CCC(CSc2ccccc2)C1 (centres undefined) | -1.58 |
| Cn1ccc2c(ccn2CC(=O)Nc2ccc(Br)cc2)c1=O | 30.5 |
| Cc1cc(NCCN2CCNC2=O)nc2cc3c(cc12)CCC3 | -4.19 |
| Cc1c(S(=O)(=O)N(CCc2ccccc2)Cc2ccn(C)n2)cnn1C | -8.56 |
| CS(=O)(=O)N[C@@H]1CN(Cc2ccc3ccccc3c2)C[C@H]1O | -2.76 |
| O=C(c1ccccn1)N1C[C@@H]2CC[C@H](C1)N(C(=O)Cc1cccs1)C2 | -10 |
